For assay [1], the system named is T1, Pseudomonas aeruginosa ATCC 27853.
T1 construct: ATCC 27853
Description: microbe, parasite or virus in culture. The conditions noted are these: ATCC27853, inoculum 5 x 10^5 CFU/mL, run 1. More on the design: CLSI broth microdilution MIC in cation-adjusted Mueller Hinton broth, standard inoculum. As for the experimental part:
(§1) Each strain was tested at the standard inoculum of 5 × 10^5 colony forming units (CFU)/mL, as well as at inocula lower (5 × 10^4) and greater (5 × 10^6) than the standard inoculum. Antibacterial susceptibility testing for each P. aeruginosa isolate obtained from the four isolate sources listed above was performed using standard CLSI broth microdilution methodology using cation-adjusted Mueller Hinton broth.

Assay [2] has as its system T2, Pseudomonas aeruginosa CLB 24228.
T2 construct: CLB 24228
Description: microbe, parasite or virus in culture. More on the design: CLSI broth microdilution MIC in cation-adjusted Mueller Hinton broth, standard inoculum. The settings on record: CLB24228, inoculum 5 x 10^5 CFU/mL, run 1. The method, then: as §1

≈ marks a conversion by molar mass, not a printed value.

The values below come from PMC6610938 (BMC Microbiology, 2019).

In the case of `C[C@@H](O)[C@H]1C(=O)N2C(C(=O)O)=C(SCCNC=N)C[C@H]12` [IMI, imipenem], the figures for the MIC in assay [1] and in assay [2] were 2 µg/mL (≈ 6.68 µM) and 32 µg/mL (≈ 107 µM), respectively.
